{"source": "patent US20090246134A1", "about": "“COMPOSITIONS AND METHODS FOR MODULATING GATED ION CHANNELS” (PainCeptor Pharma Corporation, priority 2007, published 2009)", "key": {"[1]": {"experiment": "Liver microsomes stability and metabolite identification (LC-MS), rat", "assay_type": "in vitro ADME", "text": "The objective of this study is to analyze in vitro samples of Compound A and Compound B from rat and human microsomes using liquid chromatography quadrupole ion trap mass spectrometry and identify the nature of the metabolite(s) for each species.\nThe HPLC system consisted of a Thermo Surveror autosampler and a Thermo Surveyor MS pump (San Jose, Calif., USA). The LC-MS/MS system used was a Thermo LCQ Advantage (San Jose, Calif., USA). Data was acquired on a Dell Optiplex desktop computer (Round Rock, Tex., USA) equipped with operation system Windows XP professional. Data acquisition and analysis were performed using XCalibur 1.4 (San Jose, Calif., USA).\nAfter the incubation period of the liver microsomes, the reaction was stopped with the addition of acetonitrile and frozen for transport. Before analysis, the samples were thawed at room temperature. They were vortexed vigorously and centrifuged at approximately 12000 g for 10 minutes. The supernatant was transferred into an injection vial for analysis.\nA gradient mobile phase was used with a Thermo Phenyl 100×2 mm column with particle size of 5 μm. The initial mobile phase condition consisted of methanol and 0.1% formic acid solution at a ratio of 20:80, respectively. From 0 to 2 minutes, the ratio was maintained at 20:80. From 2 to 10 minutes, a linear gradient was applied and a ratio of 90:10 was maintained from 10 to 12 minutes. […] The flow rate was fixed at 0.25 mL/min.\nThe mass spectrometer was interfaced with the HPLC system using a pneumatic assisted electrospray ion source. The sheath gas was set to 15 units and the ESI electrode was set to 4000 V (positive mode). The capillary temperature was set at 300° C., and the capillary voltage was set to 13 V. The mass spectrometer was operating in full scan MS mode using one segment analysis (200-800)."}, "[2]": {"tested_on": "CFA-induced change in weight bearing in Sprague-Dawley rats", "experiment": "CFA model of chronic inflammatory pain, hindpaw weight bearing", "assay_type": "in vivo, rat", "details": "24 h after CFA; 60 min after drug; Compound A 5, 10, 20 mg/kg i.p.; Compound H 10, 30, 60 mg/kg; morphine 3, 6, 10 mg/kg; n=7-8", "method": "Rats (body weight 260-300 g) were given a s.c. injection of CFA (50% in saline, 100 μl, Sigma) into the plantar surface of the hindpaw under brief halothane anaesthesia. After 24 h, they were then tested for hindpaw weight bearing responses, as assessed using an Incapacitance Tester (Linton Instrumentation, UK), (Zhu et al., 2005). The instrument incorporates a dual channel scale that separately measures the weight of the animal distributed to each hindpaw. While normal rats distribute their body weight equally between the two hindpaws (50-50), the discrepancy of weight distribution between an injured and non-injured paw is a natural reflection of the discomfort level in the injured paw (nocifensive behavior). The rats were placed in the plastic chamber designed so that each hindpaw rested on a separate transducer pad. […] For each rat, three readings from each paw were taken and then averaged. Side-to-side weight bearing difference was calculated as the average of the absolute value of the difference between two hindpaws from three trials (right paw reading-left paw reading).\nHindpaw weight bearing responses were measured in male Sprague-Dawley rats for 2-3 days prior to being given a hindpaw injection of CFA. Twenty-four hours later baseline responses were measured and rats were then administered Compound A (5, 10 and 20 mg/kg, i.p.), Compound H (10, 30 and 60 mg/kg) and morphine (3, 6 and 10 mg/kg). Weight bearing responses were then measured at 30, 60 and 120 min after drug or vehicle injection (data shown at 60 min.). […] All groups n=7-8."}, "[3]": {"tested_on": "formalin-induced pain in Sprague-Dawley rats", "experiment": "Formalin model of acute tonic pain", "assay_type": "in vivo, rat", "method": "Male Sprague-Dawley rats are housed together in groups of three animals under standard conditions with unrestricted access to food and water. All experiments are conducted according to the ethical guidelines for investigations of experimental pain in conscious animals (Zimmerman, 1983)\nAssessment of formalin-induced flinching behavior in normal, uninjured rats (body weight 150-180 g) was made with the use of an Automated Nociception Analyser (University of California, San Diego, USA). Briefly, this involved placing a small C-shaped metal band (10 mm wide×27 mm long) on the hindpaw of the rat to be tested. The rats (four rats were included in each testing session) were then placed in a cylindrical plexiglass observation chamber (diameter 30.5 cm and height 15 cm) for 20 min for adaptation purposes prior to being administered drug or vehicle according to the experimental paradigm being followed. After adaptation, individual rats were then gently restrained and formalin (5% in saline, 50 μl, s.c.) was injected into the plantar surface of the hindpaw using a 27 G needle. Rats were then returned to their separate observation chambers, each of which were in turn situated upon an enclosed detection device consisting of two electromagnetic coils designed to produce an electromagnetic field in which movement of the metal band could be detected. The analogue signal was then digitised and a software algorithm (LabView) applied to enable discrimination of flinching behaviour from other paw movements. A sampling interval of 1 min was used and on the basis of the resulting response patterns 5 phases of nociceptive behaviour were identified and scored: first phase (P1; 0-5 min), interphase (Int; 6-15 min), second phase (P2; […]), phase 2A (P2A; 16-40 min) and phase 2B (P2B; 41-60 min).\nNociceptive behavior was also determined manually every 5 min by measuring the amount of time spent in each of four behavioral categories: 0, treatment of the injected hindpaw is indistinguishable from that of the contralateral paw; 1, the injected paw has little or no weight placed on it; 2, the injected paw is elevated and is not in contact with any surface; 3, the injected paw is licked, bitten, or shaken. A weighted nociceptive score, ranging from 0 to 3 was calculated by multiplying the time spent in each category by the category weight, summing these products, and dividing by the total time for each 5 min block of time. (Coderre et al., Pain 1993; 54: 43). On the basis of the resulting response patterns, 2 phases of nociceptive behavior were identified and scored: first phase (P1; 0-5 min), interphase (Int; 6-15 min), second phase (P2; […]), phase 2A (P2A; 16-40 min) and phase 2B (P2B; 41-60 min).\nStatistical analysis was performed using Prism™ 4.01 software package (GraphPad, San Diego, Calif., USA). The difference in response levels between treatment groups and control vehicle group was analyzed using an ANOVA followed by Bonferroni's method for post-hoc pair-wise comparisons. A p value<0.05 was considered to be significant\nThe effect of Compound A on pain induced by intraplantar formalin injection was investigated. Compound A was administered i.p. 30 min. before the formalin. Compound A was able to reduce the total pain score behavior (flinching, licking, biting) in phase 1 and 2 of the formalin test."}, "[4]": {"details": "rat microsomes 60 min (samples 5-7)"}, "[5]": {"details": "i.p. 30 min before formalin, n=6-8"}}, "note": "Values joined by “and” are separate entries in the source; they are usually repeats but may differ in a detail not shown here. Identical values can stand only once."}
{"smiles": "COc1ccc(F)cc1-c1cc2c(c3c1CCN(C)C3)NC(=O)C2=NO", "note": "[Compound A, 5-(5-fluoro-2-methoxyphenyl)-6,7,8,9-tetrahydro-3-(hydroxyimino)-8-methyl-1H-pyrrolo[3,2-h]isoquinoline-2(3H)-one]", "values": [{"measurement": "Total % metabolites", "setting": "[1]; % peak area relative to parent at T0, 60 min incubation, rat microsomes", "result": 32.76, "unit": "%"}, {"measurement": "Compound A metabolite identification: m/z 342", "setting": "[1]; [4]", "result": "Yes"}, {"measurement": "Compound A metabolite identification: m/z 356 (parent)", "setting": "[1]; [4]", "result": "Yes"}, {"measurement": "Compound A metabolite identification: m/z 372", "setting": "[1]; [4]", "result": "Yes"}, {"measurement": "Compound A metabolite identification: m/z 412", "setting": "[1]; [4]", "result": "trace"}, {"measurement": "Calc. Conc.", "setting": "[1]; rat microsomes, time 0 min", "result": "3.61 µM and 3.80 µM"}, {"measurement": "Calc. Conc.", "setting": "[1]; rat microsomes, time 60 min", "result": "2.49 µM and 2.67 µM and 2.40 µM"}, {"measurement": "CFA-induced change in weight bearing compared with vehicle", "setting": "[2]", "result": "marked dose-dependent attenuation"}, {"measurement": "ED50", "setting": "[3]; Rattus norvegicus, ip, i.p. 30 min before formalin, read-out: ED50, Phase 2 of the total pain score", "result": "~12", "unit": "mg/kg"}, {"measurement": "relationship between dose and plasma exposure", "setting": "[3]; formalin experiments, i.p.", "result": "linear relationship"}, {"measurement": "effects on phases 1 and 2, specific pain behaviors (licking and biting) only", "setting": "[3]; [5]", "result": "quite pronounced"}, {"measurement": "total pain score behavior (flinching, licking, biting) in phase 1 and 2 of the formalin test", "setting": "[3]; [5]", "result": "reduce"}, {"measurement": "acute tonic pain induced by formalin injection in the paw", "setting": "[3]; rat, in vivo", "result": "block"}]}
